Values quoted from earlier work, collected in patent US20150252306A1, “COMPOSITIONS COMPRISING A PUNGENT AGENT” (The Procter & Gamble Company, priority 2014, published 2015).

Conditions: Scoville heat units, given for comparison

Q: For COc1cc(CNC(=O)CCCC/C=C/C(C)C)ccc1O [capsaicin], which pungency level is on record?
A: about 16 000 000 SHU
